Legend:
NLRP3 [1] = molecular target: T1, NLRP3 (Homo sapiens, UniProt Q96P20); test: Human whole blood IL-1β release assay; type: cell-based; design: Human whole blood in Li-heparin tubes was obtained from healthy donors; from tissue; host or cells: human whole blood from healthy donors; conditions: LPS, nigericin 10 μM, IL-1β by AlphaLisa
Procedure: For systemic delivery, the ability to inhibit NLRP3 when the compounds are present within the bloodstream is of great importance. For this reason, the NLRP3 inhibitory activity of a number of compounds in human whole blood was investigated in accordance with the following protocol.
Human whole blood in Li-heparin tubes was obtained from healthy donors from a volunteer donor panel.
Plate out 80 μl of whole blood containing […] of LPS in 96-well, clear bottom cell culture plate (Corning #3585)
Add 10 μl compound (8 points half-log dilution with 10 μM top dose) or vehicle (DMSO 0.1% FAC) to the appropriate wells
(§1) Incubate for 3 hours at 37° C., 5% CO2
Add 10 μl nigericin (Sigma #N7143) (10 μM FAC) to all wells
(§2) Incubate for 1 hr at 37° C., 5% CO2
At the end of the incubation period, spin plates at 300 xg for 5 mins to pellet cells and remove 20 μl of supernatant and add to 96-well v-bottom plates for IL-1β analysis (note: these plates containing the supernatants can be stored at −80° C. to be analysed at a later date)
IL-1β was measured according to the manufacturer protocol (Perkin Elmer-AlphaLisa IL-1 Kit AL220F-5000)
(§3) IC50 data is fitted to a non-linear regression equation (log inhibitor vs response-variable slope 4-parameters)

NLRP3 [2] = molecular target: T1, NLRP3; test: THP-1 cells pyroptosis assay; type: cell-based; design: Seed THP-1 cells (25,000 cells/well) containing 1.0 μg/ml LPS; host or cells: THP-1 cells, LPS-primed, nigericin-stimulated; conditions: LPS 1.0 μg/ml, nigericin 5 μM, resazurin readout
Excerpt: It is well established that the activation of NLRP3 leads to cell pyroptosis and this feature plays an important part in the manifestation of clinical disease (Yan-gang Liu et al., Cell Death & Disease, 2017, 8(2), e2579; Alexander Wree et al., Hepatology, 2014, 59(3), 898-910; Alex Baldwin et al., Journal of Medicinal Chemistry, 2016, 59(5), 1691-1710; Ema Ozaki et al., Journal of Inflammation Research, 2015, 8, 15-27; Zhen Xie & Gang Zhao, Neuroimmunology Neuroinflammation, 2014, 1(2), 60-65; Mattia Cocco et al., Journal of Medicinal Chemistry, 2014, 57(24), 10366-10382; T. Satoh et al., Cell Death & Disease, 2013, 4, e644). Therefore, it is anticipated that inhibitors of NLRP3 will block pyroptosis, as well as the release of pro-inflammatory cytokines (e.g. […]) from the cell.
THP-1 cells (ATCC #TIB-202) were grown in RPMI containing L-glutamine (Gibco #11835) supplemented with 1 mM sodium pyruvate (Sigma #S8636) and penicillin (100 units/ml)/streptomycin (0.1 mg/ml) (Sigma #P4333) in 10% Fetal Bovine Serum (FBS) (Sigma #F0804). The cells were routinely passaged and grown to confluency (˜10^6 cells/ml). On the day of the experiment, THP-1 cells were harvested and resuspended into RPMI medium (without FBS). The cells were then counted and viability (>90%) checked by Trypan blue (Sigma #T8154). Appropriate dilutions were made to give a concentration of 625,000 cells/ml. To this diluted cell solution was added LPS (Sigma #L4524) to give a […] Final Assay Concentration (FAC). 40 μl of the final preparation was aliquoted into each well of a 96-well plate. The plate thus prepared was used for compound screening.
The following method step-by-step assay was followed for compound screening.
Seed THP-1 cells (25,000 cells/well) containing 1.0 μg/ml LPS in 40 μl of RPMI medium (without FBS) in 96-well, black walled, clear bottom cell culture plates coated with poly-D-lysine (VWR #734-0317)
Add 5 μl compound (8 points half-log dilution, with 10 μM top dose) or vehicle (DMSO 0.1% FAC) to the appropriate wells
as §1
Add 5 μl nigericin (Sigma #N7143) (FAC 5 μM) to all wells
as §2
At the end of the incubation period, spin plates at 300 xg for 3 mins and remove supernatant
Then add 50 μl of resazurin (Sigma #R7017) (FAC 100 μM resazurin in RPMI medium without FBS) and incubate plates for a further 1-2 hours at 37° C. and 5% CO2
Plates were read in an Envision reader at Ex 560 nm and Em 590 nm
as §3

T1 sequence (Q96P20 whole entry): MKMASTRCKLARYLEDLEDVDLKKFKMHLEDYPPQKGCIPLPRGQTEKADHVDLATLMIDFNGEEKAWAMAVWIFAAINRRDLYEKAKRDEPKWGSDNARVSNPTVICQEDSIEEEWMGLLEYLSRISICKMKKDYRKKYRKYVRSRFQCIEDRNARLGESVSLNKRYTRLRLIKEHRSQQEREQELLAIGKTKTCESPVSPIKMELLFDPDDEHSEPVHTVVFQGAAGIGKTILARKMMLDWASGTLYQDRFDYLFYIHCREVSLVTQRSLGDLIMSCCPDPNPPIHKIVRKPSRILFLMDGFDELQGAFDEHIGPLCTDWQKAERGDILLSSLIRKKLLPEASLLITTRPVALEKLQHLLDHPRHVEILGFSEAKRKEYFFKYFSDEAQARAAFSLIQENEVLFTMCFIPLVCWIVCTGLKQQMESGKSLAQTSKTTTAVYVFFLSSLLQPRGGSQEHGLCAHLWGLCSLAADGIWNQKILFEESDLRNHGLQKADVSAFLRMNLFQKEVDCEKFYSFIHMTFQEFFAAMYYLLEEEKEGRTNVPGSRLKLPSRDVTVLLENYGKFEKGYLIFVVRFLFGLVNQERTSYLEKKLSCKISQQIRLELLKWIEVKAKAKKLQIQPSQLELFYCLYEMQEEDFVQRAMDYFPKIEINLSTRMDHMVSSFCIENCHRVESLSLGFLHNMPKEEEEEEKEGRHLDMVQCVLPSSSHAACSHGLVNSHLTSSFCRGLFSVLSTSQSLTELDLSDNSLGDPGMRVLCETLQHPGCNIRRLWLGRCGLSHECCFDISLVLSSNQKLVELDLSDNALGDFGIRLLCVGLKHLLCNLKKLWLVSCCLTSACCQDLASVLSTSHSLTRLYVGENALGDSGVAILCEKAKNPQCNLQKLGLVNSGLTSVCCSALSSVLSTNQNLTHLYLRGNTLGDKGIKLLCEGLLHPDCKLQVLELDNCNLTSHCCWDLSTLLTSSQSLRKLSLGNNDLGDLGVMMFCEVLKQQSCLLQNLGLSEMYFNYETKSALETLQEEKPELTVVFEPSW

Structure (SMILES)	IC50 (NLRP3 [1])	IC50 (NLRP3 [2])
Cc1cc(C(F)(F)F)cc(O)c1-c1ccc2oc(N[C@@H]3C[C@H](O)CN(CCCC(=O)O)C3)nc2n1 [Example 5, 4-[(3S,5R)-3-Hydroxy-5-[[5-[2-hydroxy-6-methyl-4-(trifluoromethyl)phenyl]oxazolo[4,5-b]pyridin-2-yl]amino]-1-piperidyl]butanoic Acid]	432 nM	51 nM
CCN1C[C@@H](O)C[C@@H](Nc2nc3nc(-c4c(O)cc(C#N)cc4COC)cnc3o2)C1 [Example 23, 4-[2-[[(3R,5S)-1-Ethyl-5-hydroxy-3-piperidyl]amino]oxazolo[4,5-b]pyrazin-5-yl]-3-hydroxy-5-(methoxymethyl)benzonitrile;2,2,2-trifluoroacetic Acid]	34 nM	44 nM
COCc1cc(C#N)cc(O)c1-c1ccc2oc(N[C@@H]3CCCN(CCO)C3)nc2n1 [Example 3, 3-Hydroxy-4-[2-[[(3R)-1-(2-hydroxyethyl)-3-piperidyl]amino]oxazolo[4,5-b]pyridin-5-yl]-5-(methoxymethyl)benzonitrile]	35.2 nM	27.9 nM
CCN1C[C@@H](O)C[C@@H](Nc2nc3nc(-c4c(C)cc(C#N)cc4O)cnc3o2)C1 [Example 17, 4-[2-[[(3R,5S)-1-Ethyl-5-hydroxy-3-piperidyl]amino]oxazolo[4,5-b]pyrazin-5-yl]-3-hydroxy-5-methyl-benzonitrile]	18 nM	3 nM
CCN1C[C@@H](O)C[C@@H](Nc2nc3nc(-c4c(C)cc5c(c4O)CCO5)cnc3o2)C1 [Example 25, (3S,5R)-1-Ethyl-5-[[5-(4-hydroxy-6-methyl-2,3-dihydrobenzofuran-5-yl)oxazolo[4,5-b]pyrazin-2-yl]amino]piperidin-3-ol]	16 nM	2 nM
Cc1cc(C#N)cc(O)c1-c1ccc2oc(N[C@H]3CNC[C@@H](O)C3)nc2n1 [Example 9, 3-Hydroxy-4-[2-[[(3R,5S)-5-hydroxy-3-piperidyl]amino]oxazolo[4,5-b]pyridin-5-yl]-5-methyl-benzonitrile]	84 nM	45 nM
Cc1cc(C#N)cc(O)c1-c1ccc2oc(N[C@@H]3CCCN(CCCc4ncco4)C3)nc2n1 [Example 28, 3-Hydroxy-5-methyl-4-[2-[[(3R)-1-(3-oxazol-2-ylpropyl)-3-piperidyl]amino]oxazolo[4,5-b]pyridin-5-yl]benzonitrile]	86 nM	23 nM
COCc1cc2c(c(O)c1-c1cc(OC)c3oc(N[C@@H]4CCCN(CCO)C4)nc3n1)CCO2 [Example 21, 5-[2-[[(3R)-1-(2-Hydroxyethyl)-3-piperidyl]amino]-7-methoxy-oxazolo[4,5-b]pyridin-5-yl]-6-(methoxymethyl)-2,3-dihydrobenzofuran-4-ol]	–	9 nM
Cc1cc(C#N)cc(O)c1-c1cc(F)c2oc(N[C@@H]3CCCN(CCO)C3)nc2n1 [Example 29, 4-[7-Fluoro-2-[[(3R)-1-(2-hydroxyethyl)-3-piperidyl]amino]oxazolo[4,5-b]pyridin-5-yl]-3-hydroxy-5-methyl-benzonitrile]	124 nM	7 nM
Cc1cc2c(c(O)c1-c1cnc3oc(N[C@@H]4C[C@H](O)CN(CCO)C4)nc3n1)CCO2 [Example 24, (3S,5R)-1-(2-Hydroxyethyl)-5-[[5-(4-hydroxy-6-methyl-2,3-dihydrobenzofuran-5-yl)oxazolo[4,5-b]pyrazin-2-yl]amino]piperidin-3-ol]	53 nM	19 nM
Cc1cc(C#N)cc(O)c1-c1cnc2oc(N[C@@H]3CCCN(CCO)C3)nc2n1 [Example 10, 3-Hydroxy-4-[2-[[(3R)-1-(2-hydroxyethyl)-3-piperidyl]amino]oxazolo[4,5-b]pyrazin-5-yl]-5-methyl-benzonitrile]	29 nM	5 nM
Cc1cc(C(F)(F)F)cc(O)c1-c1ccc2oc(N[C@@H]3C[C@H](O)CN(CCO)C3)nc2n1 [Example 6, (3S,5R)-1-(2-Hydroxyethyl)-5-[[5-[2-hydroxy-6-methyl-4-(trifluoromethyl)phenyl]oxazolo[4,5-b]pyridin-2-yl]amino]piperidin-3-ol]	95 nM	12 nM
COc1cc(-c2c(C)cc3c(c2O)CCO3)nc2nc(N[C@@H]3CCCN(CCO)C3)oc12 [Example 22, 5-[2-[[(3R)-1-(2-Hydroxyethyl)-3-piperidyl]amino]-7-methoxy-oxazolo[4,5-b]pyridin-5-yl]-6-methyl-2,3-dihydrobenzofuran-4-ol]	39 nM	5 nM
CCN1C[C@@H](O)C[C@@H](Nc2nc3nc(-c4c(C)cc(C#N)cc4O)cc(OC)c3o2)C1 [Example 30, 4-[2-[[(3R,5S)-1-Ethyl-5-hydroxy-3-piperidyl]amino]-7-methoxy-oxazolo[4,5-b]pyridin-5-yl]-3-hydroxy-5-methyl-benzonitrile]	48 nM	13 nM
CCN1C[C@@H](O)C[C@@H](Nc2nc3nc(-c4c(C)cc(C#N)cc4O)cc(F)c3o2)C1 [Example 27, 4-[2-[[(3R,5S)-1-Ethyl-5-hydroxy-3-piperidyl]amino]-7-fluoro-oxazolo[4,5-b]pyridin-5-yl]-3-hydroxy-5-methyl-benzonitrile]	95 nM	6 nM
COc1cc(-c2c(C)cc(C#N)cc2O)nc2nc(N[C@@H]3CCCN(CCO)C3)oc12 [Example 16, 3-Hydroxy-4-[2-[[(3R)-1-(2-hydroxyethyl)-3-piperidyl]amino]-7-methoxy-oxazolo[4,5-b]pyridin-5-yl]-5-methyl-benzonitrile]	22 nM	8 nM
Cc1cc(C#N)cc(O)c1-c1ccc2oc(N[C@@H]3CCCN(CCc4ncco4)C3)nc2n1 [Example 4, 3-Hydroxy-5-methyl-4-[2-[[(3R)-1-(2-oxazol-2-ylethyl)-3-piperidyl]amino]oxazolo[4,5-b]pyridin-5-yl]benzonitrile]	192 nM	26.1 nM
Cc1cc(C#N)cc(O)c1-c1cnc2oc(N[C@@H]3CCCN(CCO)C3)nc2n1 [Example 1, 3-Hydroxy-4-[2-[[(3R)-1-(2-hydroxyethyl)-3-piperidyl]amino]oxazolo[4,5-b]pyrazin-5-yl]-5-methyl-benzonitrile;2,2,2-trifluoroacetic Acid]	24.2 nM	3.3 nM
Cc1cc(C#N)cc(O)c1-c1cnc2oc(N[C@@H]3C[C@H](O)CN(C)C3)nc2n1 [Example 7, 3-Hydroxy-4-[2-[[(3R,5S)-5-hydroxy-1-methyl-3-piperidyl]amino]oxazolo[4,5-b]pyrazin-5-yl]-5-methyl-benzonitrile;2,2,2-trifluoroacetic Acid]	17 nM	10 nM
COc1cc(-c2c(C)cc3c(c2O)CCC3)nc2nc(N[C@@H]3CCCN(CCO)C3)oc12 [Example 19, 5-[2-[[(3R)-1-(2-Hydroxyethyl)-3-piperidyl]amino]-7-methoxy-oxazolo[4,5-b]pyridin-5-yl]-6-methyl-indan-4-ol]	–	4 nM

Source: patent US20260092073A1, “NOVEL COMPOUNDS” (Hoffmann-La Roche Inc., priority 2023, published 2026)
